Tests used:
PD-1/PD-L1 binding = target: T1, PD-1/PD-L1 binding (Homo sapiens, UniProt Q9NZQ7); test: HTRF inhibition of PD-1/PD-L1 binding in vitro; settings: His-PD-1 100 nM, PD-L1-Fc 2 nM, read-out: IC50 inhibiting PD-1/PD-L1 binding in vitro
T1 construct: purchased Sino Biological Inc. 10084-H02H-100 (PD-L1-Fc); 10377-H08H-50 (His-PD-1)
From the text: Homogeneous Time-Resolved Fluorescence (HTRF): This method used the recombinant human PD-L1 protein fused to express the hFc tag and the recombinant human PD-1 protein fused to express the His tag, both of which were interacting ligands and receptors. When the anti-hFc antibody containing Eu element chelation marker and the anti-His antibody labeled with XL665 fluorescein were bound with the above two corresponding labels, and excited by a laser with a wavelength of 320 nm, the ligand-receptor binding enabled the energy to be transferred from the Eu element to the XL665 fluorescein, which was excited to emit light at a wavelength of 665 nm. However, when an inhibitor of the interaction between PD-L1 and PD-1 was added, the binding of the ligand to the receptor was destroyed, so that the distance between Eu and XL665 was far away, the energy cannot be transferred, and XL665 would not be excited.
(§1) Recombinant human PD-1 protein with His tag (His-PD-1 protein, Cat #: 10377-H08H-50), and recombinant human PD-L1-Fc fusion protein (PD-L1-Fc fusion protein, Cat #: 10084-H02H-100) were purchased from Sino Biological Inc., anti-hFc-Eu^+ antibody and anti-His-XL665 antibody were purchased from Cisbio Company, and other related reagents such as dilution buffer (Diluent buffer 5, Cat #: 62DL5DDC), detection buffer (PPI-Europium detection buffer, Cat #: 61DB9RDF) were purchased from Cisbio Company. Fluorescence detection instrument Tecan (Spark 10 M) was purchased from Switzerland Tecan Company.
(§2) (1) Experimental preparation: The test compound was diluted with dilution buffer into different concentration gradients (the highest final concentration in 20 μL final reaction system was 10 μM), His-PD-1 protein was diluted to 800 nM (the final concentration in 20 μL final reaction system was 100 nM), and the PD-L1-Fc fusion protein was diluted to 16 nM (final concentration was 2 nM). The anti-His-XL665 antibody and anti-hFc-Eu^3+ antibody were respectively diluted 20 times and 100 times using the detection buffer according to the reagent requirements.
(§3) (2) 5 μL of test compound, 2.5 μL of PD-L1-Fc fusion protein and 2.5 μL of His-PD-1 protein solution were mixed, and incubated at room temperature for 15 min. Then the system was added with 5 μL of anti-His-XL665 antibody and 5 μL of anti-hFc-Eu^3+ antibody, incubated for another 3 h, and then detected.
(3) When detecting the reaction, a control group was also provided, including a 0% inhibition positive control without adding test compounds and a 100% inhibition negative control without adding PD-1 protein. All detections were performed with duplicates.
(§4) (4) The fluorescence signal of each well was measured using a fluorescence detector Tecan (Spark 10M) at an excitation wavelength of 320 nm, and emission wavelengths of 620 nm and 665 nm, respectively. The intensity of the mutual binding of PD-1 and PD-L1 referred to the ratio of fluorescence signals Em665/Em620.
(§5) (5) The binding inhibition rate of the test compound was calculated as follows: Inhibition rate (%)=[1−(Fluorescence signal ratio of detection well-fluorescence signal ratio of 100% inhibition negative control)]/(fluorescence signal ratio of 0% inhibition positive control-fluorescence signal ratio of 100% inhibition negative control)×100%. After calculating the inhibition rate on PD-1/PD-L1 binding of the test compounds with different concentration gradients, the 50% inhibitory concentration (IC50) was calculated.

CD80/PD-L1 binding = target: T2, CD80/PD-L1 binding (Homo sapiens, UniProt Q9NZQ7); test: HTRF inhibition of CD80/PD-L1 binding in vitro; settings: His-CD80 100 nM, PD-L1-Fc 2 nM, read-out: IC50 inhibiting CD80/PD-L1 binding in vitro
T2 construct: purchased Sino Biological Inc. 10084-H02H-100 (PD-L1-Fc); 10698-H08H-100 (His-CD80)
From the text: In addition to PD-1, PD-L1 can also exert immunosuppressive activity by binding to CD80. Similarly, in vitro experiments of binding or binding inhibition of CD80 and PD-L1 can also be measured by homogeneous time-resolved fluorescence (HTRF). When the anti-hFc-Eu^3+ antibody and anti-His-XL665 antibody were bound to the hFC tag fused to PD-L1 and the His tag fused to CD80 respectively, and excited with a 320 nm wavelength laser, the binding of PD-L1 and CD80 enabled energy to be transferred from the Eu element to the XL665 fluorescein, which was excited to emit light. When the inhibitor of the interaction between PD-L1 and CD80 was added, the combination of the two was destroyed, so that the distance between Eu and XL665 was far away, the energy cannot be transferred, and XL665 would not be excited.
as §1, with “CD80” for “PD-1”, “(His-CD80” for “(His-PD-1”, “10698-H08H-100),” for “10377-H08H-50),”, “anti-hFc-Eu^3+” for “anti-hFc-Eu^+”
as §2, with “His-CD80” for “His-PD-1”
as §3, with “Hid-CD80” for “PD-L1-Fc fusion”, “[…]” for “His-PD-1”
(3) When detecting the reaction, a control group was provided, including a 0% inhibition positive control without adding test compounds and a 100% inhibition negative control without adding CD-80 protein. All detections were performed with duplicates.
as §4, with “CD80” for “PD-1”
as §5, with “CD80/PD-L1” for “PD-1/PD-L1”

T1 sequence (Q9NZQ7 19-239 limits assumed): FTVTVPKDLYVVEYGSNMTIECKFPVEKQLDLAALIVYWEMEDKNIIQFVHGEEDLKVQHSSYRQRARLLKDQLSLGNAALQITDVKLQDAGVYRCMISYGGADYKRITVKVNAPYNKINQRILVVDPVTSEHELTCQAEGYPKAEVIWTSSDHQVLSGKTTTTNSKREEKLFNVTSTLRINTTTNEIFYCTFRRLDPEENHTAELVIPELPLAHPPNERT
T2 sequence (Q9NZQ7 19-239 limits assumed): as above

SMILES | IC50 (PD-1/PD-L1 binding) | IC50 (CD80/PD-L1 binding)
[2H]C([2H])([2H])OCC12CCC(CCN3CCc4c(nc(C(=O)Nc5cccc(-c6cccc(NC(=O)c7nc8c(n7C)CCN(CCC79CCC(C(=O)O)(CC7)C9)C8)c6Cl)c5F)n4C)C3)(CC1)C2 (single isomer, unassigned) [Compound I-2, 4-(2-(2-((2-chloro-2′-fluoro-3′-(5-(2-(4-((methoxy-d3)methyl)bicyclo[2.2.1]heptane-1-y 1)ethyl)-1-methyl-4,5,6,7-tetrahydro-1H-imidazo[4,5-c]pyridine-2-carboxamido)-[1,1′-biphenyl]-3-yl)carbamoyl)-1-methyl-1,4,6,7-tetrahydro-5H-imidazo[4,5-c]pyridin-5-yl)ethyl)bicyclo[2.2.1]heptane-1-carboxylic acid] | 1.52 nM | 1.09 nM
[2H]C([2H])([2H])OCC12CCC(CCN3CCc4c(nc(C(=O)Nc5cccc(-c6cccc(NC(=O)c7nc8c(n7C([2H])([2H])[2H])CCN(CCC79CCC(C(=O)O)(CC7)C9)C8)c6Cl)c5F)n4C([2H])([2H])[2H])C3)(CC1)C2 (single isomer, unassigned) [Compound I-7, 4-(2-(2-((2-chloro-2′-fluoro-3′-(5-(2-(4-((methoxy-d3)methyl)bicyclo[2.2.1]heptane-1-yl)ethyl)-1-(methyl-d3)-4,5,6,7-tetrahydro-1H-imidazo[4,5-c]pyridine-2-carboxamido)-[1,1′-biphenyl]-3-yl)carbamoyl)-1-(methyl-d3)-1,4,6,7-tetrahydro-5H-imidazo[4,5-c]pyridin-5-yl)ethyl)bicyclo[2.2.1]heptane-1-carboxylic acid] | 1.38 nM | 1.94 nM
[2H]C([2H])([2H])n1c(C(=O)Nc2cccc(-c3cccc(NC(=O)c4nc5c(n4C([2H])([2H])[2H])CCN(CCC46CCC(C(=O)O)(CC4)C6)C5)c3Cl)c2F)nc2c1CCN(CCC13CCC(COC)(CC1)C3)C2 (single isomer, unassigned) [Compound I-8, 4-(2-(2-((2-chloro-2′-fluoro-3′-(5-(2-(4-(methoxymethyl)bicyclo[2.2.1]heptane-1-yl)ethyl)-1-(methyl-d3)-4,5,6,7-tetrahydro-1H-imidazo[4,5-c]pyridine-2-carboxamido)-[1,1′-biphenyl]-3-yl)carbamoyl)-1-(methyl-d3)-1,4,6,7-tetrahydro-5H-imidazo[4,5-c]pyridin-5-yl)ethyl)bicyclo[2.2.1]heptane-1-carboxylic acid] | 1.63 nM | 1.77 nM
[2H]c1c([2H])c(NC(=O)c2nc3c(n2C)CCN(CCC24CCC(COC([2H])([2H])[2H])(CC2)C4)C3)c(F)c(-c2c([2H])c([2H])c([2H])c(NC(=O)c3nc4c(n3C)CCN(CCC35CCC(C(=O)O)(CC3)C5)C4)c2Cl)c1[2H] (single isomer, unassigned) [Compound I-14, 4-(2-(2-((2-chloro-2′-fluoro-3′-(5-(2-(4-((methoxy-d3)methyl)bicyclo[2.2.1]heptane-1-y 1)ethyl)-1-methyl-4,5,6,7-tetrahydro-1H-imidazo[4,5-c]pyridine-2-carboxamido)-[1,1′-biphenyl]-3-yl-4,4′,5,5′,6,6′-d6)carbamoyl)-1-methyl-1,4,6,7-tetrahydro-5H-imidazo[4,5-c]pyridin-5-yl)ethyl)bicyclo[2.2.1]heptane-1-carboxylic acid] | 0.51 nM | 0.37 nM
[2H]C([2H])([2H])OCC12CCC(CCN3CCc4c(nc(C(=O)Nc5cccc(-c6cccc(NC(=O)c7nc8c(n7C)CCN(CCC79CCC(C(=O)O)(CC7)C9)C8)c6Cl)c5Cl)n4C)C3)(CC1)C2 [Compound I-1, 4-(2-(2-((2,2′-dichloro-3′-(5-(2-(4-((methoxy-d3)methyl)bicyclo[2.2.1]heptane-1-yl)ethyl)-1-methyl-4,5,6,7-tetrahydro-1H-imidazo[4,5-c]pyridine-2-carboxamido)-[1,1′-biphenyl]-3-yl)carbamoyl)-1-methyl-1,4,6,7-tetrahydro-5H-imidazo[4,5-c]pyridin-5-yl)ethyl)bicyclo[2.2.1]heptane-1-carboxylic acid] | 0.72 nM | 0.58 nM
[2H]C([2H])([2H])OCC12CCC(CCN3CCc4c(nc(C(=O)Nc5cccc(-c6cccc(NC(=O)c7nc8c(n7C)CCN(CCC79CCC(C(=O)O)(CC7)C9)C8)c6C)c5Cl)n4C)C3)(CC1)C2 [Compound I-3, 4-(2-(2-((2′-chloro-3′-(5-(2-(4-((methoxy-d3)methyl)bicyclo[2.2.1]heptane-1-yl)ethyl)-1-methyl-4,5,6,7-tetrahydro-1H-imidazo[4,5-c]pyridine-2-carboxamido)-2-methyl-[1,1′-biphenyl]-3-yl)carbamoyl)-1-methyl-1,4,6,7-tetrahydro-5H-imidazo[4,5-c]pyridin-5-yl)ethyl)bicyclo[2.2.1]heptane-1-carboxylic acid] | 2.9 nM | 1.78 nM
[2H]C([2H])([2H])OCC12CCC(CCN3CCc4c(nc(C(=O)Nc5cccc(-c6cccc(NC(=O)c7nc8c(n7C)CCN(CCC79CCC(C(=O)O)(CC7)C9)C8)c6Cl)c5C)n4C)C3)(CC1)C2 [Compound I-4, 4-(2-(2-((2-chloro-3′-(5-(2-(4-((methoxy-d3)methyl)bicyclo[2.2.1]heptane-1-yl)ethyl)-1-methyl-4,5,6,7-tetrahydro-1H-imidazo[4,5-c]pyridine-2-carboxamido)-2′-methyl-[1,1′-biphenyl]-3-yl)carbamoyl)-1-methyl-1,4,6,7-tetrahydro-5H-imidazo[4,5-c]pyridin-5-yl)ethyl)bicyclo[2.2.1]heptane-1-carboxylic acid] | 2.8 nM | 1.75 nM

Reference: US20260234164A1, “BIPHENYL COMPOUND AS IMMUNOMODULATOR, PREPARATION METHOD THEREFOR AND USE THEREOF” (SHENZHEN CHIPSCREEN BIOSCIENCES CO., LTD., priority 2021, published 2026)
